Results from patent US11292801B2, “Calpain modulators and therapeutic uses thereof” (Blade Therapeutics, Inc., priority 2016, dated 2022).

Columns and labels:
Human Calpain 1/NS1 = target: T1, Human Calpain 1/NS1 (Homo sapiens, UniProt P07384); assay: Biochemical inhibition of calpain 1, continuous fluorescence (FRET substrate) assay; details: mean, read-out: Human Calpain 1/NS1 IC50 (nM)_MEAN
T1 sequence (P07384 1-714): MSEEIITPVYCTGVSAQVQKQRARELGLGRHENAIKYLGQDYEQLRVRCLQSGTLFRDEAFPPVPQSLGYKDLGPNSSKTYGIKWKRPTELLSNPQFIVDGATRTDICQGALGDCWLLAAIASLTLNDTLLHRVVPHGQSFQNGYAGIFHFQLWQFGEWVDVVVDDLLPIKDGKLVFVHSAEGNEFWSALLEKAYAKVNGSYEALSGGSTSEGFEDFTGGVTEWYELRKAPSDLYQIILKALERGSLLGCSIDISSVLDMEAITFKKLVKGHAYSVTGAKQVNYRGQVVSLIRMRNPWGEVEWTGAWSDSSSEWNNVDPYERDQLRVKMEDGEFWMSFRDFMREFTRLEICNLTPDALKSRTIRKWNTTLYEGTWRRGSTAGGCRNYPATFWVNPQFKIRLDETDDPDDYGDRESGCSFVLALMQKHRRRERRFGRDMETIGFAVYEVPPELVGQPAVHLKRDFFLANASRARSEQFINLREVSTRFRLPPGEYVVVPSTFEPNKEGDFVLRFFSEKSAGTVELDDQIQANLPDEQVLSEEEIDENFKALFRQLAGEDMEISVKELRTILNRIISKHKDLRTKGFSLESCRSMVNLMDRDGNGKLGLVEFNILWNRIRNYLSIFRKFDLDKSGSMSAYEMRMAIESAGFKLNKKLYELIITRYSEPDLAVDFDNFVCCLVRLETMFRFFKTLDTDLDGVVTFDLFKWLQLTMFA
T1 sequence (P04632 1-268 partner): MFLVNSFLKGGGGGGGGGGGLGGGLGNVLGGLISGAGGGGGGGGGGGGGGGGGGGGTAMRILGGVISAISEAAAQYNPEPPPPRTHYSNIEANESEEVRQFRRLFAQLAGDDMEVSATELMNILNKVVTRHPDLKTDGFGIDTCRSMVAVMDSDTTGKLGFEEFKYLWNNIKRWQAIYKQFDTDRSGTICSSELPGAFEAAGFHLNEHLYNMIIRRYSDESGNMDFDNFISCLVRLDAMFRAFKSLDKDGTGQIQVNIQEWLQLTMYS
Summary of the method: (§1)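 IC50 values come from 4-parameter fits of progress-curve rates (1-5 min slopes) against log inhibitor concentration. Calpain and inhibitor premixed at ambient 25C in Tris pH ~7.5/NaCl/DTT buffer, then CaCl2 and FRET substrate added to activate; 5-FAM fluorescence (ex 490/em 520) followed 10 min.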

Human Calpain 2/NS1 = target: T2, Human Calpain 2/NS1 (Homo sapiens, UniProt P17655); assay: Biochemical inhibition of calpain 2, continuous fluorescence (FRET substrate) assay; details: mean, read-out: Human Calpain 2/NS1 IC50 (nM)_MEAN
T2 sequence (P17655 1-700): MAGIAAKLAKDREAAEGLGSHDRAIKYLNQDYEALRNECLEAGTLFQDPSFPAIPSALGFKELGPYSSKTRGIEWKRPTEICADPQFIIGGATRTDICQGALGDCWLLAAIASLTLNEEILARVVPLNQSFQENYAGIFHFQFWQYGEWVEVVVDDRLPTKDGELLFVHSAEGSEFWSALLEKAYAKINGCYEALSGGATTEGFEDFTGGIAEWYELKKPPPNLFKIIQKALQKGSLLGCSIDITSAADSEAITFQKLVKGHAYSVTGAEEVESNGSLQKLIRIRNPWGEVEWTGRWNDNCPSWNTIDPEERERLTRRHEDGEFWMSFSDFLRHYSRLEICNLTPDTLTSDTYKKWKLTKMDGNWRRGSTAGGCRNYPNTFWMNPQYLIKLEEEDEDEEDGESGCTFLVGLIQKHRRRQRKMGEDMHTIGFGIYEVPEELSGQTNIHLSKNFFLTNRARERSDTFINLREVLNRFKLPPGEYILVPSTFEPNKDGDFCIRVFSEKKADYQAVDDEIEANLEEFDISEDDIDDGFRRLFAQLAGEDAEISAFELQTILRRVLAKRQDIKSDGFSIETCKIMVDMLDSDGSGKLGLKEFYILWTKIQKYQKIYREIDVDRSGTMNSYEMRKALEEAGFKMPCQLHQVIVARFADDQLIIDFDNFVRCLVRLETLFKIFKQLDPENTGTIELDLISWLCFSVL
T2 sequence (P04632 1-268 partner): T1 sequence (P04632 1-268 partner)
Summary of the method: as §1

Human Calpain 9/NS1 = target: T3, Human Calpain 9/NS1 (Homo sapiens, UniProt O14815); assay: Biochemical inhibition of calpain 9, continuous fluorescence (FRET substrate) assay; details: mean, read-out: Human Calpain 9/NS1 IC50 (nM)_MEAN
T3 sequence (O14815 1-690): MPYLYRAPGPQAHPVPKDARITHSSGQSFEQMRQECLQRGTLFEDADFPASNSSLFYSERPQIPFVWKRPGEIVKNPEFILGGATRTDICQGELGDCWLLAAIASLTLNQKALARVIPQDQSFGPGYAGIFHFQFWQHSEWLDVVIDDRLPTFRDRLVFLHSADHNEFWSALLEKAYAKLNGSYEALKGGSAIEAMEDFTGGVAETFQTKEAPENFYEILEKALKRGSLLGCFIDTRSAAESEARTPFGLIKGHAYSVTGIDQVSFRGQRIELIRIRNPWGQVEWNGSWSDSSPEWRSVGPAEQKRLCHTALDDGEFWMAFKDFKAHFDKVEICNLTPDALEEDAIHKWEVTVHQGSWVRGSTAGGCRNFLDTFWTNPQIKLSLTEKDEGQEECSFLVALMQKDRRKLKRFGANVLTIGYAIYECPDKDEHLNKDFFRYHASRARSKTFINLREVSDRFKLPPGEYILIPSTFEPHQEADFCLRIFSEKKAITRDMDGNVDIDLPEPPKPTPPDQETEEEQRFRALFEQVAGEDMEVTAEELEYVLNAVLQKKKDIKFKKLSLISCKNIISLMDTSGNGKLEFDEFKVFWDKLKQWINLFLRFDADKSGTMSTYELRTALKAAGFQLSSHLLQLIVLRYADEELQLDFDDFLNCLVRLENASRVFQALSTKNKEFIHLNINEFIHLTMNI
T3 sequence (P04632 1-268 partner): T1 sequence (P04632 1-268 partner)
Summary of the method: as §1

| SMILES | IC50 (Human Calpain 1/NS1) | IC50 (Human Calpain 2/NS1) | IC50 (Human Calpain 9/NS1) |
| --- | --- | --- | --- |
| O=C(NCCc1ccc(Cl)cc1)C(=O)[C@@H]1C/C=C\COCCOCc2ccccc2C(=O)N1 [Compound 77, (S,Z)—N-(4-chlorophenethyl)-2-oxo-2-(12-oxo-1,3,4,6,9,10,11,12-octahydrobenzo[f][1,4]dioxa[9]azacyclotetradecin-10-yl)acetamide] | 3000 to 10000 nM | 3000 to 10000 nM | < 3000 nM |
| O=C[C@@H]1CCCCCCCCCc2ccccc2C(=O)N1 [Compound 16, (S)-1-Oxo-1,2,3,4,5,6,7,8,9,10,11,12-dodecahydrobenzo[c][1]aza-cyclotetradecine-3-carbaldehyde] | 3000 to 10000 nM | < 3000 nM | < 3000 nM |
| CCOC(=O)CNC(=O)C(=O)[C@@H]1CCCCOCCOCc2ccccc2C(=O)N1 [Compound 56, Ethyl (S)-(2-oxo-2-(12-oxo-1,3,4,6,7,8,9,10,11,12-decahydrobenzo[f][1,4]dioxa[9]azacyclotetradecin-10-yl)acetyl)glycinate] | > 10000 nM | < 3000 nM | < 3000 nM |
| O=C[C@@H]1Cc2ccc(cc2)OCCCCOc2ccc3c(cnn3-c3ncccc3C(=O)N1)c2 [Compound 67, (5S)-3-oxo-1^1H-8,13-dioxa-4-aza-1(1,5)-indazola-2(2,3)-pyridina-7(1,4)-benzenacyclotridecaphane-5-carbaldehyde] | < 3000 nM | < 3000 nM | < 3000 nM |
| CCOC(=O)CCNC(=O)C(=O)[C@@H]1C/C=C\COCCOCc2ccccc2C(=O)N1 [Compound 60, Ethyl (S,Z)-3-(2-oxo-2-(12-oxo-1,3,4,6,9,10,11,12-octahydrobenzo[f][1,4]dioxa[9]azacyclotetradecin-10-yl)acetamido)propanoate] | > 10000 nM | > 10000 nM | > 10000 nM |
| NC(=O)C(=O)[C@@H]1C/C=C\CCOc2ccnc(n2)-c2ccccc2C(=O)N1 [Compound 138, (S,Z)-2-oxo-2-(3-oxo-11-oxa-4-aza-1(2,4)-pyrimidina-2(1,2)-benzenacycloundecaphan-7-en-5-yl)acetamide] | < 3000 nM | < 3000 nM | < 3000 nM |
| C[C@@H](NC(=O)C(=O)C1CCCCOCCOCc2ccccc2C(=O)N1)c1cccnc1 (stereo partly drawn) [Compound 127, 2-Oxo-2-(12-oxo-1,3,4,6,7,8,9,10,11,12-decahydrobenzo[f][1,4]dioxa[9]aza-cyclotetradecin-10-yl)-N—((R)-1-(pyridin-3-yl)ethyl)acetamide] | > 10000 nM | > 10000 nM | > 10000 nM |
| O=C(NCCCN1CCOCC1)C(=O)C1CCCCOCCOCc2ccccc2C(=O)N1 (stereo not drawn) [Compound 92, N-(3-morpholinopropyl)-2-oxo-2-(12-oxo-1,3,4,6,7,8,9,10,11,12-decahydrobenzo[f][1,4]dioxa[9]azacyclotetradecin-10-yl)acetamide] | > 10000 nM | > 10000 nM | 3000 to 10000 nM |
| NC(=O)C(=O)[C@@H]1C/C=C/CCOc2ccnc(n2)-c2ccccc2C(=O)N1 [Compound 137, (S,E)-2-oxo-2-(3-oxo-11-oxa-4-aza-1(2,4)-pyrimidina-2(1,2)-benzenacycloundecaphan-7-en-5-yl)acetamide] | < 3000 nM | < 3000 nM | < 3000 nM |
| O=C[C@@H]1Cc2ccc(cc2)CCCCc2ccc3nn(cc3c2)-c2ncccc2C(=O)N1 [Compound 76, (1^3Z,1^4Z,5S)-3-oxo-1^2H-4-aza-1(2,5)-indazola-2(2,3)-pyridina-7(1,4)-benzenacycloundecaphane-5-carbaldehyde] | < 3000 nM | < 3000 nM | < 3000 nM |
| CC(C)NC(=O)C(=O)[C@@H]1C/C=C\COCCOCc2ccccc2C(=O)N1 [Compound 58, (S,Z)—N-isopropyl-2-oxo-2-(12-oxo-1,3,4,6,9,10,11,12-octahydrobenzo[f][1,4]dioxa[9]azacyclotetradecin-10-yl)acetamide] | > 10000 nM | > 10000 nM | > 10000 nM |
| O=C[C@@H]1C/C=C/CCCCCc2cccnc2C(=O)N1 [Compound 48, (S,E)-15-Oxo-6,7,8,9,12,13,14,15-octahydro-5h-pyrido[2,3-c][1]aza-cyclotridecine-13-carbaldehyde] | > 10000 nM | 3000 to 10000 nM | < 3000 nM |
| O=C[C@@H]1Cc2ccccc2CCCCCCOc2ccccc2C(=O)N1 [Compound 20, (S)-19-Oxo-6,7,8,9,10,11,16,17,18,19-decahydrodibenzo[b,h][1]oxa[5]aza-cyclopentadecine-17-carbaldehyde] | 3000 to 10000 nM | < 3000 nM | < 3000 nM |
| CC(C)NC(=O)C(=O)[C@@H]1CCCCOCCOCc2ccccc2C(=O)N1 [Compound 52, (S)—N-isopropyl-2-oxo-2-(12-oxo-1,3,4,6,7,8,9,10,11,12-decahydrobenzo[f][1,4]dioxa[9]azacyclotetradecin-10-yl)acetamide] | > 10000 nM | > 10000 nM | > 10000 nM |
| CCNC(=O)C(=O)[C@@H]1Cc2ccc(cc2)OC/C=C/COc2cccc(c2)-c2ccn(n2)-c2ncccc2C(=O)N1 [Compound 65, N-ethyl-2-oxo-2-((2^2E,6S,11E)-4-oxo-2^1H-9,14-dioxa-5-aza-3(2,3)-pyridina-2(3,1)-pyrazola-1(1,3),8(1,4)-dibenzenacyclotetradecaphan-11-en-6-yl)acetamide] | < 3000 nM | < 3000 nM | < 3000 nM |
| O=C[C@@H]1CC=CCCCOCc2ccccc2C(=O)N1 [Compound 41, (S)-11-Oxo-1,3,4,5,8,9,10,11-octahydrobenzo[c][1]oxa[6]azacyclotridecine-9-carbaldehyde] | > 10000 nM | < 3000 nM | < 3000 nM |
| CCNC(=O)C(=O)[C@@H]1CC=CCCCCCc2ccccc2C(=O)N1 [Compound 26, (S)—N-ethyl-2-oxo-2-(1-oxo-2,3,4,7,8,9,10,11-octahydro-1h-benzo[c][1]azacyclotridecin-3-yl)acetamide] | > 10000 nM | > 10000 nM | 3000 to 10000 nM |
| O=C[C@@H]1CCCCOCCOCc2ccccc2C(=O)N1 [Compound 43, (S)-12-Oxo-1,3,4,6,7,8,9,10,11,12-decahydrobenzo[f][1,4]dioxa[9]aza-cyclotetradecine-10-carbaldehyde] | > 10000 nM | < 3000 nM | < 3000 nM |
